{"source": "paper PMC4537392", "about": "(Neuropharmacology, 2015)", "key": {"[1]": {"target": "T1, mGlu4 (Rattus norvegicus, UniProt P31423)", "T1 sequence (P31423 33-912)": "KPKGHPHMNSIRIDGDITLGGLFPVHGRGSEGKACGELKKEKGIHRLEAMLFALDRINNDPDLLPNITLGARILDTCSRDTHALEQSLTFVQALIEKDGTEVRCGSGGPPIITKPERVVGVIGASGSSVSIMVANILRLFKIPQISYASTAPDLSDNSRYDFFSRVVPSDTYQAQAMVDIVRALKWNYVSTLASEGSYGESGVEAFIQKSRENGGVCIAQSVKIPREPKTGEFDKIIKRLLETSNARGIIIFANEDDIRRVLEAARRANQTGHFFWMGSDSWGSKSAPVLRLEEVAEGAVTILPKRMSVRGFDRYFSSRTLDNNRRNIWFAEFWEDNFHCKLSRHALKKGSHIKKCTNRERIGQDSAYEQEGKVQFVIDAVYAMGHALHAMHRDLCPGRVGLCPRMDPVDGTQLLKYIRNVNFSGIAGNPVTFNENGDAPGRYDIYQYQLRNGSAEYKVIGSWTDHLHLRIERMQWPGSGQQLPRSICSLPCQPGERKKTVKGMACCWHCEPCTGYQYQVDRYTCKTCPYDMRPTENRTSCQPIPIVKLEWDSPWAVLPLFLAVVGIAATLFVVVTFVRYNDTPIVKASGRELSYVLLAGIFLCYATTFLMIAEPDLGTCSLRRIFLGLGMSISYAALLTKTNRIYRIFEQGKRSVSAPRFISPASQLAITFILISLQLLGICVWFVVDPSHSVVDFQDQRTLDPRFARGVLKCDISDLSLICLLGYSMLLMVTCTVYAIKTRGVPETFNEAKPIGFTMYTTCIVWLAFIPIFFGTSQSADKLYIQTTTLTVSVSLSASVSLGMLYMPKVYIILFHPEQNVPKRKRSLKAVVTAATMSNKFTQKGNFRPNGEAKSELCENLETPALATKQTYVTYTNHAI", "assay": "Ion dependency of [3H]3 binding", "settings": "10 nM [3H]3, 30 μM L-AP4, Hepes buffer with or without NaCl, MgCl2, KCl, CaCl2"}, "[2]": {"target": "T1, mGlu4", "assay": "Temperature dependency of [3H]3 binding", "settings": "10 nM [3H]3, 100 nM Glu, 30 min"}, "[3]": {"target": "T1, mGlu4", "assay": "Co-operative assay: enhancement of [3H]3 binding by orthosteric agonists"}, "[4]": {"target": "T1, mGlu4", "assay": "mGlu4 competitive binding assay against [3H]ML128", "settings": "10 nM compound"}}}
{"smiles": "COc1cc(NC(=O)c2ccccn2)ccc1Cl", "note": "[[^3H]3, N-(4-Chloro-3-methoxyphenyl)-2-picolinamide]", "values": [{"measurement": "ion dependency of specific binding", "setting": "[1]", "result": "related to chloride ion"}, {"measurement": "total amount of specific binding at +4 °C and +25 °C", "setting": "[2]", "result": "quite similar at +4 °C and +25 °C"}, {"measurement": "specific binding at higher temperature (+45 °C)", "setting": "[2]; +45 °C", "result": "drops the specific binding"}]}
{"smiles": "N[C@@H](CCC(=O)O)C(=O)O", "note": "[compound 1, L-Glutamate acid]", "values": [{"measurement": "EC50", "setting": "[3]", "result": 0.832, "unit": "µM"}]}
{"smiles": "NC(CCP(=O)(O)O)C(=O)O", "note": "[compound 2, L-AP4]", "values": [{"measurement": "logEC50 (enhancement of [3H]3 binding by orthosteric agonist)", "setting": "[3]; 10 nM [3H]3, CHO cells expressing mGlu4, 30 min room temperature, n=3", "result": "−6.67 (SE 0.05)"}]}
{"smiles": "O=C(Nc1ccc(N2C(=O)c3cccc(F)c3C2=O)c(Cl)c1)c1ccccn1", "note": "[compound 4, N-(3-Chloro-4-(4-fluoro-1,3-dioxo-isoindolin-2-yl)phenyl)-2-picolinamide]", "values": [{"measurement": "bound fraction of [3H]3, single concentration assay", "setting": "[4]; higher glutamate concentration, n=9, SE 1.2", "result": 21.4, "unit": "%"}, {"measurement": "bound fraction of [3H]3, single concentration assay", "setting": "[4]; lower glutamate concentration, n=9, SE 1.4", "result": 35.4, "unit": "%"}]}
